# Assay results taken from patent US20260053811A1, “METHODS OF TREATING HYPERTENSION IN OBESE SUBJECTS” (Mineralys Therapeutics, Inc., priority 2022, published 2026).
# Test system: hypertensive subjects
# Test: Seated automated office blood pressure (AOBP) in randomized, placebo-controlled, dose-ranging study
# Assay type: in vivo, human
# Settings: for Placebo-adjusted reduction in AOBP SBP, exploratory MMRM analysis by BMI: data not shown; for Mean (SD) Automated Office-Measured Systolic Blood Pressure at Wk 8 / Mean (SD) Change from Baseline at Week 8 in Automated Office-Measured Systolic Blood Pressure / Mean (SD) Automated Office-Measured Diastolic Blood Pressure at Wk 8 / Mean (SD) Change from Baseline at Week 8 in Automated Office-Measured Diastolic Blood Pressure: Part 1, 12.5 mg BID
# Experimental: A randomized, double-blinded, placebo-controlled, dose-ranging, multicenter study was conducted to evaluate the effect of orally administered Compound A HBr on blood pressure for the treatment of hypertension in male and female subjects ≥18 years of age.
# The study consists of two parts. For enrollment into Part 1 of the study, a subject's value of plasma renin activity (PRA) must be ≤1 ng/mL/h based on morning measurement. If the value of PRA >1 ng/mL/h based on morning measurement, then subjects may be eligible to enter Part 2 of the study.
# For Part 1, 163 enrolled subjects ≥18 years of age were randomized into 6 equal treatment groups (1:1:1:1:1:1) to 12.5 mg BID, 25 mg BID, 12.5 mg QD, 50 mg QD, 100 mg QD, or placebo. After a review of interim clinical data, the 2 lowest dose levels (12.5 mg QD and 12.5 mg BID) were stopped for future randomization due to a lack of consistent meaningful reduction of blood pressure, but the patients randomized to that point remained in the study through completion. Thus, after the review of interim clinical data, subjects were randomized into 4 equal treatment groups (1:1:1:1) to 25 mg BID, 50 mg QD, 100 mg QD, or placebo.
# For Part 2, 36 enrolled subjects ≥18 years of age were randomized (5:1) to either 100 mg QD Compound A HBr or placebo such that the Compound A HBr treatment group consisted of approximately 30 subjects and the placebo treatment group will consist of approximately 6 subjects.
# Subjects orally administered the assigned study drug (Compound A HBr or placebo) according to the assigned dosing regimen for 8 weeks beginning on Study Day 1. All subjects in Part 1 (regardless of dosing group) received BID dosing to preserve the integrity of the blind; active drug is administered as the morning dose for all QD dose groups. Subjects returned to the research facility or were seen by the clinical investigator or approved home health care professional at the end of Study Weeks 1, 2, 3, 4, 5, 6, 7, and 8 (±2 days) for protocol-defined efficacy and safety assessments and procedures, assessment of adverse events (AEs), and confirmation of compliance with study drug usage. Subjects also completed a telephone visit and blood pressure (BP) check at home approximately 3 days post last dose of study drug. Subjects attended up to 14 full clinic visits, including a pre-Screening visit, a Screening/start of Placebo Run-in visit, a second visit during Placebo Run-in, a clinic visit to initiate the ABPM procedure, a Randomization visit, 8 weekly visits during double-blind treatment, and an end-of-study visit scheduled 4 weeks after the last study treatment for final efficacy and safety assessments.
# An automated oscillometric sphygmomanometer device was used to measure the subjects' systolic and diastolic blood pressure in office after approximately 5 minutes of rest in the seated position.
# The primary endpoint is the change in office-measured (mean of last 2 of 5 unattended measurements using an automated oscillometric sphygmomanometer device after approximately 5 minutes of rest in the seated position) systolic blood pressure (SBP) from baseline to the end of Study Week 8.
# Secondary endpoints of this study were: • (a) Change in 24-hour ambulatory blood pressure monitoring (ABPM) parameters (systolic and diastolic) from baseline to the end of Study Week 7. • (b) Change in office-measured SBP from baseline to the end of Study Weeks 1, 2, 3, 4, 5, 6, and 7. • (c) Change in office-measured diastolic blood pressure (DBP) from baseline to the end of Study Weeks 1, 2, 3, 4, 5, 6, 7, and 8. • (d) Proportion of subjects who achieve office-measured BP of ≤130/80 mm Hg by the end of Study Week 8.
structure (smiles),measurement,setting,value
CC(=O)N[C@H]1CC[C@H](NC(=O)CN2CCN(c3nncc(-c4ccc(C)cc4)n3)CC2)CC1 [Compound A HBr],Subjects with seated AOBP SBP/DBP ≤130/80 mmHg: No,"100 mg QD, Week 8, Part 2, FAS",14 (45.2) n (%)
same,Subjects with seated AOBP SBP/DBP ≤130/80 mmHg: Yes,"100 mg QD, Week 8, Part 2, FAS",17 (54.8) n (%)
same,"Placebo-adjusted reduction in AOBP SBP, exploratory MMRM analysis by BMI",Part 1 50 mg QD cohort,−16.7 mmHg
same,"Placebo-adjusted reduction in AOBP SBP, exploratory MMRM analysis by BMI",Part 1 100 mg QD cohort,−12.3 mmHg
same,Mean (SD) Automated Office-Measured Systolic Blood Pressure at Wk 8,ACEi/ARB No,131.50 (16.22) mmHg
same,Mean (SD) Change from Baseline at Week 8 in Automated Office-Measured Systolic Blood Pressure,ACEi/ARB No,−18.75 (21.77) mmHg
same,Mean (SD) Automated Office-Measured Systolic Blood Pressure at Wk 8,ACEi/ARB Yes,132.00 (12.59) mmHg
same,Mean (SD) Change from Baseline at Week 8 in Automated Office-Measured Systolic Blood Pressure,ACEi/ARB Yes,−12.47 (17.09) mmHg
same,Mean (SD) Automated Office-Measured Diastolic Blood Pressure at Wk 8,ACEi/ARBs No,76.25 (12.37) mmHg
same,Mean (SD) Change from Baseline at Week 8 in Automated Office-Measured Diastolic Blood Pressure,ACEi/ARBs No,−4.00 (8.79) mmHg
same,Mean (SD) Automated Office-Measured Diastolic Blood Pressure at Wk 8,ACEi/ARBs Yes,74.93 (9.86) mmHg
same,Mean (SD) Change from Baseline at Week 8 in Automated Office-Measured Diastolic Blood Pressure,ACEi/ARBs Yes,−6.33 (9.02) mmHg
same,Mean (SD) Automated Office-Measured Diastolic Blood Pressure at Wk 8,AHTs 2,79.67 (11.78) mmHg
same,Mean (SD) Automated Office-Measured Systolic Blood Pressure at Wk 8,AHTs 2,136.33 (11.76) mmHg
same,Mean (SD) Change from Baseline at Week 8 in Automated Office-Measured Diastolic Blood Pressure,AHTs 2,−5.25 (7.78) mmHg
same,Mean (SD) Change from Baseline at Week 8 in Automated Office-Measured Systolic Blood Pressure,AHTs 2,−8.33 (13.28) mmHg
same,Mean (SD) Automated Office-Measured Diastolic Blood Pressure at Wk 8,AHTs ≥3,73.15 (8.93) mmHg
same,Mean (SD) Automated Office-Measured Systolic Blood Pressure at Wk 8,AHTs ≥3,129.85 (13.37) mmHg
same,Mean (SD) Change from Baseline at Week 8 in Automated Office-Measured Diastolic Blood Pressure,AHTs ≥3,−6.12 (9.49) mmHg
same,Mean (SD) Change from Baseline at Week 8 in Automated Office-Measured Systolic Blood Pressure,AHTs ≥3,−16.31 (19.35) mmHg
same,Mean (SD) Automated Office-Measured Diastolic Blood Pressure at Wk 8,Age 65-79 yr,76.18 (7.87) mmHg
same,Mean (SD) Automated Office-Measured Systolic Blood Pressure at Wk 8,Age 65-79 yr,135.73 (11.26) mmHg
same,Mean (SD) Change from Baseline at Week 8 in Automated Office-Measured Diastolic Blood Pressure,Age 65-79 yr,−3.18 (7.91) mmHg
same,Mean (SD) Change from Baseline at Week 8 in Automated Office-Measured Systolic Blood Pressure,Age 65-79 yr,−12.77 (19.08) mmHg
same,Mean (SD) Automated Office-Measured Diastolic Blood Pressure at Wk 8,Age <65 yr,79.17 (9.58) mmHg
same,Mean (SD) Automated Office-Measured Systolic Blood Pressure at Wk 8,Age <65 yr,132.17 (11.13) mmHg
same,Mean (SD) Change from Baseline at Week 8 in Automated Office-Measured Diastolic Blood Pressure,Age <65 yr,−5.67 (5.02) mmHg
same,Mean (SD) Change from Baseline at Week 8 in Automated Office-Measured Systolic Blood Pressure,Age <65 yr,−6.92 (7.84) mmHg
same,Mean (SD) Automated Office-Measured Diastolic Blood Pressure at Wk 8,Age ≥80 yr,58.00 (7.07) mmHg
same,Mean (SD) Automated Office-Measured Systolic Blood Pressure at Wk 8,Age ≥80 yr,110.00 (1.41) mmHg
same,Mean (SD) Change from Baseline at Week 8 in Automated Office-Measured Diastolic Blood Pressure,Age ≥80 yr,−21.00 (9.90) mmHg
same,Mean (SD) Change from Baseline at Week 8 in Automated Office-Measured Systolic Blood Pressure,Age ≥80 yr,−40.00 (4.24) mmHg
same,Mean (SD) Automated Office-Measured Diastolic Blood Pressure at Wk 8,BMI 25−30 kg/m^2,71.75 (9.07) mmHg
same,Mean (SD) Change from Baseline at Week 8 in Automated Office-Measured Diastolic Blood Pressure,BMI 25−30 kg/m^2,−8.00 (7.56) mmHg
same,Mean (SD) Automated Office-Measured Diastolic Blood Pressure at Wk 8,BMI <25 kg/m^2,92.00 (NE) mmHg
same,Mean (SD) Change from Baseline at Week 8 in Automated Office-Measured Diastolic Blood Pressure,BMI <25 kg/m^2,6.00 (NE) mmHg
same,Mean (SD) Automated Office-Measured Diastolic Blood Pressure at Wk 8,BMI >30 kg/m^2,75.00 (9.80) mmHg
same,Mean (SD) Change from Baseline at Week 8 in Automated Office-Measured Diastolic Blood Pressure,BMI >30 kg/m^2,−6.07 (9.01) mmHg
same,Mean (SD) Automated Office-Measured Systolic Blood Pressure at Wk 8,BMI at baseline 25-30 kg/m^2,125.50 (14.89) mmHg
same,Mean (SD) Change from Baseline at Week 8 in Automated Office-Measured Systolic Blood Pressure,BMI at baseline 25-30 kg/m^2,−23.88 (24.55) mmHg
same,Mean (SD) Automated Office-Measured Systolic Blood Pressure at Wk 8,BMI at baseline <25 kg/m^2,150.00 (NE) mmHg
same,Mean (SD) Change from Baseline at Week 8 in Automated Office-Measured Systolic Blood Pressure,BMI at baseline <25 kg/m^2,2.50 (NE) mmHg
same,Mean (SD) Automated Office-Measured Systolic Blood Pressure at Wk 8,BMI at baseline >30 kg/m^2,132.43 (11.93) mmHg
same,Mean (SD) Change from Baseline at Week 8 in Automated Office-Measured Systolic Blood Pressure,BMI at baseline >30 kg/m^2,−12.07 (15.48) mmHg
same,Mean (SD) Automated Office-Measured Diastolic Blood Pressure at Wk 8,Race Black or AA,79.14 (8.49) mmHg
same,Mean (SD) Automated Office-Measured Systolic Blood Pressure at Wk 8,Race Black or AA,137.71 (13.50) mmHg
